Measured values as given in ChEMBL document CHEMBL4602709 (ACS Med Chem Lett, 2020).
pIC50: −log10 of the molar value.

What was measured:
Homo sapiens = species on record: Homo sapiens; experiment: Inhibition of VEGFR (unknown origin) assessed as residual activity at 10 uM incubated for 5 mins in presence of [gamma-33ATP] by scintillation counting based radiometry assay relative to control
[1] = target: Ephrin type-A receptor 4 (Homo sapiens) (UniProt P54764); experiment: Inhibition of EPHA4 (unknown origin) assessed as residual activity incubated for 5 mins in presence of [gamma-33ATP] by scintillation counting based radiometry assay
Chain of Ephrin type-A receptor 4 (Homo sapiens) (P54764 whole entry, looked up): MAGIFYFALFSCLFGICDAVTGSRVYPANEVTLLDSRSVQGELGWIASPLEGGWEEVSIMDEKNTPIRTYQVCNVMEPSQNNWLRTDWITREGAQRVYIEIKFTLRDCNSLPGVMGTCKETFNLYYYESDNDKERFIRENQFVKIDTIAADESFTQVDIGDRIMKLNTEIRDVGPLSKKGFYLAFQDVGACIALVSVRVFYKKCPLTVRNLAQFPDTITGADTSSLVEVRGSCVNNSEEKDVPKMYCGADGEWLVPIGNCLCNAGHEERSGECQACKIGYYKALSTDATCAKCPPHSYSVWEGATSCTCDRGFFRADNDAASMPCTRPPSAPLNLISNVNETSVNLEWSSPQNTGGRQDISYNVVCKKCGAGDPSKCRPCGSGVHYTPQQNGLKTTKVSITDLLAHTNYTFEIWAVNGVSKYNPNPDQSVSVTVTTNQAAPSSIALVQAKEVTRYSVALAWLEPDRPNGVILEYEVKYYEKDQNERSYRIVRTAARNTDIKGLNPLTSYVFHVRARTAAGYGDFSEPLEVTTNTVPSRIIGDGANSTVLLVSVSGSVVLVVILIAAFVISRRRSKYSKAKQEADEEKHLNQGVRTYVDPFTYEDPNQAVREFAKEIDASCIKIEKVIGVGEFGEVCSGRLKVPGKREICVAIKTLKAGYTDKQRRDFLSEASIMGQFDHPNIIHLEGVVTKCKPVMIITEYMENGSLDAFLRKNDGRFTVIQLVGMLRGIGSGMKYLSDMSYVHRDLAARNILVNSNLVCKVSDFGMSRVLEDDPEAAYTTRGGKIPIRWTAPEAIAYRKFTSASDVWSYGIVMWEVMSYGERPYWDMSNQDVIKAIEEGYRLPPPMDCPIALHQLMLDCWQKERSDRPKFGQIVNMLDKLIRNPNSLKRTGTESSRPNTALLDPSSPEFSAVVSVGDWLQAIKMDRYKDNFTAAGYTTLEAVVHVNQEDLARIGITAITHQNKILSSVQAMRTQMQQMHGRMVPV

[2] = target: Tyrosine-protein kinase ABL1 (Homo sapiens, UniProt P00519); experiment: Inhibition of human ABL1 assessed as residual activity using EAIYAAPFAKKK as substrate by [gamma-33P]-ATP assay
Chain of Tyrosine-protein kinase ABL1 (P00519 whole entry): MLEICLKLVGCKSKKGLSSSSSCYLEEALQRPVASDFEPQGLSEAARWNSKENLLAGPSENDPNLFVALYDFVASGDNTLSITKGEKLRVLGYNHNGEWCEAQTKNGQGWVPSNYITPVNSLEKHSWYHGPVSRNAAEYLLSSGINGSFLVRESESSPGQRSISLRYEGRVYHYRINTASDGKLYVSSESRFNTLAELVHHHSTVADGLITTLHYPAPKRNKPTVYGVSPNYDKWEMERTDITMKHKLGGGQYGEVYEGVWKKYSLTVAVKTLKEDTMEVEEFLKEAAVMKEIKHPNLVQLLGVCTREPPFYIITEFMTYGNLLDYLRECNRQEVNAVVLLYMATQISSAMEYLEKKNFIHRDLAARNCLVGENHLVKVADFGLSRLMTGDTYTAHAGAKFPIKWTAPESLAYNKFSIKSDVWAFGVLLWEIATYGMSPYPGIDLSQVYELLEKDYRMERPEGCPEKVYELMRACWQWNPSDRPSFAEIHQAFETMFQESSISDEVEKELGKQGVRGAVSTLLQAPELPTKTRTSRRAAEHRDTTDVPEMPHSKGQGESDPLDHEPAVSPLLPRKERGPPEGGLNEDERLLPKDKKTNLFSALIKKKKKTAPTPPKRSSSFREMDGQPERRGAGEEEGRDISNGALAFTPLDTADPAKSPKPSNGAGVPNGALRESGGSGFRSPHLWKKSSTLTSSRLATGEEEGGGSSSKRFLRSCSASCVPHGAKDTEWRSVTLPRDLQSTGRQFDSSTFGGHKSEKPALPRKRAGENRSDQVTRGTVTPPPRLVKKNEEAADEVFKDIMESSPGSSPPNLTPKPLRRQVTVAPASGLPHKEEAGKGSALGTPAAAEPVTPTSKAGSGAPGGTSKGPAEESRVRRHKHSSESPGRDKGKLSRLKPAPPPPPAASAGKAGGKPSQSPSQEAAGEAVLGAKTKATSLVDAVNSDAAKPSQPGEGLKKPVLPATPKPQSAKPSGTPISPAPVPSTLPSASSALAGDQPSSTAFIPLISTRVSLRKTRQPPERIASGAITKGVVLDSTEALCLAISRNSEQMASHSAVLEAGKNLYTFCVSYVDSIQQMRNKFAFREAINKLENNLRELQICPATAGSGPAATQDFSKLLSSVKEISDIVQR

[3] = target: T1, Ephrin type-B receptor 3 (Homo sapiens) (UniProt P54753); experiment: Inhibition of EPHB3 (unknown origin) assessed as residual activity at 10 uM incubated for 5 mins in presence of [gamma-33ATP] by scintillation counting based radiometry assay relative to control
T1 sequence (whole entry): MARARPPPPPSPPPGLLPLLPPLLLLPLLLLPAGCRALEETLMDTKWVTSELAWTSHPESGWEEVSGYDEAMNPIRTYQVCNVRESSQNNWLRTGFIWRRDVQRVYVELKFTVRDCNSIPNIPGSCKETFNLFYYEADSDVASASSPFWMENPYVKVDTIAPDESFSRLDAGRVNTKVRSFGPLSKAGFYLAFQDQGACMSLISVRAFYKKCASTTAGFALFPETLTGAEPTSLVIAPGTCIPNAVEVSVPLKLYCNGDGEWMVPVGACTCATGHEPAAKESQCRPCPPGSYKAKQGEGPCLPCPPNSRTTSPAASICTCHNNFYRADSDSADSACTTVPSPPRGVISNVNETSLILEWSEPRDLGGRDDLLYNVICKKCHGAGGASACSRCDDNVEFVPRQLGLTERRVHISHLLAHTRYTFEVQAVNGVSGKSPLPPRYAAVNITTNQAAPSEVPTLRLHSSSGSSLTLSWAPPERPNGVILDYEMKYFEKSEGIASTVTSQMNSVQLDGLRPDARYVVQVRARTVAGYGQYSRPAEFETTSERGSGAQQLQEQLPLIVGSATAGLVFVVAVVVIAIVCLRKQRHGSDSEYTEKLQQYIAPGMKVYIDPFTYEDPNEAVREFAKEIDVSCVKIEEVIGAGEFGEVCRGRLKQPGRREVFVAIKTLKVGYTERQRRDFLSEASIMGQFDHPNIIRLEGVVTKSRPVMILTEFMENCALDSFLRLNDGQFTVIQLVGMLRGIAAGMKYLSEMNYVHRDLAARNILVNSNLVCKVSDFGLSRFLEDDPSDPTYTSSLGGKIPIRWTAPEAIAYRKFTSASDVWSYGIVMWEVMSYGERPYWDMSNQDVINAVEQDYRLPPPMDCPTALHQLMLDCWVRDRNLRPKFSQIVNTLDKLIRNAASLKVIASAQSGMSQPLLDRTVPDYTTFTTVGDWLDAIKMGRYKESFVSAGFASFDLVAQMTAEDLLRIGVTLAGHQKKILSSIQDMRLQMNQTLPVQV

[4] = Cytotoxicity against HEK293 cells assessed as reduction in cell viability incubated for 72 hrs by Cell Titer Glo 2.0 reagent based assay; conditions: human
[5] = target: T2, Tyrosine-protein kinase Lck (Homo sapiens, UniProt P06239); experiment: Inhibition of LCK (unknown origin) assessed as residual activity incubated for 5 mins in presence of [gamma-33ATP] by scintillation counting based radiometry assay
Target sequence in this assay (P06239 whole entry): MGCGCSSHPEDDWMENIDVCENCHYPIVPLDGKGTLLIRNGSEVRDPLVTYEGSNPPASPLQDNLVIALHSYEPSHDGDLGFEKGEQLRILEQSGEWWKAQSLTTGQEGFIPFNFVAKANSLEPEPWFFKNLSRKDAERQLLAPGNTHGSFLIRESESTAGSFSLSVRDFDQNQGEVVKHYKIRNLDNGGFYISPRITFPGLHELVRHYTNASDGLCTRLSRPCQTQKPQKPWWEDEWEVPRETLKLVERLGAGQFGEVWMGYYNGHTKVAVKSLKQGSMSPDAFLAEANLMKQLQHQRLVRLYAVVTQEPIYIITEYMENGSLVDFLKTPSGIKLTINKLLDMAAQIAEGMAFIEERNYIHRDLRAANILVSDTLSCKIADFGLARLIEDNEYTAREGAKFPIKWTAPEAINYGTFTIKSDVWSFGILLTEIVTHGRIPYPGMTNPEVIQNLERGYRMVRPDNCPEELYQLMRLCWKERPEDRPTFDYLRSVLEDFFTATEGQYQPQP

[6] = target: T2, Tyrosine-protein kinase Lck; experiment: Inhibition of LCK (unknown origin) assessed as residual activity at 10 uM incubated for 5 mins in presence of [gamma-33ATP] by scintillation counting based radiometry assay relative to control
Target sequence in this assay (P06239 2-509 limits assumed): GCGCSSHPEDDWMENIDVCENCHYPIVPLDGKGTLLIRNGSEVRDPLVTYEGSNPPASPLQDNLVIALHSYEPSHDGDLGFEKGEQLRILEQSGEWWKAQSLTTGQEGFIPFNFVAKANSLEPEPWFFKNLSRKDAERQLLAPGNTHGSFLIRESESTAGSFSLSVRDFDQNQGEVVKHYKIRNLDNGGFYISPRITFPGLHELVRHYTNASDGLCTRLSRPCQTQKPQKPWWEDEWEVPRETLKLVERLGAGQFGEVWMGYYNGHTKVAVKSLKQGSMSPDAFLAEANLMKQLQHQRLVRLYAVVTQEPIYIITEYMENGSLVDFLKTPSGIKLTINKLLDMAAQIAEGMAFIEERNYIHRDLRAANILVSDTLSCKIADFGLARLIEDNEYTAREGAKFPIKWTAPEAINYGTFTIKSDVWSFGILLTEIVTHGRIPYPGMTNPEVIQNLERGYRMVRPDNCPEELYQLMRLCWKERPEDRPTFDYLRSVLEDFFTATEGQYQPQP

[7] = target: T3, Platelet-derived growth factor receptor alpha (Homo sapiens, UniProt P16234); experiment: Inhibition of PDGFRalpha (unknown origin) assessed as residual activity at 10 uM incubated for 5 mins in presence of [gamma-33ATP] by scintillation counting based radiometry assay relative to control
T3 sequence (P16234 whole entry): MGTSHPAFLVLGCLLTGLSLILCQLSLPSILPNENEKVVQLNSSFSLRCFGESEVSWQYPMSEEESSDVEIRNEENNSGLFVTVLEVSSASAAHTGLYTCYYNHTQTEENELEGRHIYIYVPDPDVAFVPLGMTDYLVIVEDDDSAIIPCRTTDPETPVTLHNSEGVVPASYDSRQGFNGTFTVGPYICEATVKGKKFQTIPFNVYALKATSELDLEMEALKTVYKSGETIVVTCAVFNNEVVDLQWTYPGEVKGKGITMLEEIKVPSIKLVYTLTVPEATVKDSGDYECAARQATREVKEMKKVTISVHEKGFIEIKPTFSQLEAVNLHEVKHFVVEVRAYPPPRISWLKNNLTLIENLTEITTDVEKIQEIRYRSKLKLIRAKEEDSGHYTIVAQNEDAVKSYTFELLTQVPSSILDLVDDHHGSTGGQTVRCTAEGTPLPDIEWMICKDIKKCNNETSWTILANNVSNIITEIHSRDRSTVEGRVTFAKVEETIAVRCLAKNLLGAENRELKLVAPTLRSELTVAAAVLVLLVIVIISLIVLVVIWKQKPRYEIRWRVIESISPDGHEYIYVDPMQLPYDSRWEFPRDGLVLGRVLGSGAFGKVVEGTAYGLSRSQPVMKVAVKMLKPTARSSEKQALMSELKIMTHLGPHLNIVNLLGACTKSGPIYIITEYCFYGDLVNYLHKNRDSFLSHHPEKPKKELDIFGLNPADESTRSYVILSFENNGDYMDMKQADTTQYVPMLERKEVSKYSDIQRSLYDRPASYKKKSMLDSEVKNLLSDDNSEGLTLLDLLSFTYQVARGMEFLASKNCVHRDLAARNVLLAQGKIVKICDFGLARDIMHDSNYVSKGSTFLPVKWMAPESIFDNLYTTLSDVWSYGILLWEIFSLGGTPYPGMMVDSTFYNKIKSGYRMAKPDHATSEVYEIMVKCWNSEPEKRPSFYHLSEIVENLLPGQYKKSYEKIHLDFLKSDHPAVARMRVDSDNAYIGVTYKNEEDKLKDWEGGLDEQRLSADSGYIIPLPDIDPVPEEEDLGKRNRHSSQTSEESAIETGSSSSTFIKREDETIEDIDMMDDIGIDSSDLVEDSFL

[8] = target: T3, Platelet-derived growth factor receptor alpha; experiment: Inhibition of PDGFRalpha (unknown origin) assessed as residual activity incubated for 5 mins in presence of [gamma-33ATP] by scintillation counting based radiometry assay
[9] = target: T4, Discoidin domain-containing receptor 2 (Homo sapiens) (UniProt Q16832); experiment: Inhibition of DDR2 (unknown origin) assessed as residual activity at 10 uM incubated for 5 mins in presence of [gamma-33ATP] by scintillation counting based radiometry assay relative to control
T4 sequence (whole entry): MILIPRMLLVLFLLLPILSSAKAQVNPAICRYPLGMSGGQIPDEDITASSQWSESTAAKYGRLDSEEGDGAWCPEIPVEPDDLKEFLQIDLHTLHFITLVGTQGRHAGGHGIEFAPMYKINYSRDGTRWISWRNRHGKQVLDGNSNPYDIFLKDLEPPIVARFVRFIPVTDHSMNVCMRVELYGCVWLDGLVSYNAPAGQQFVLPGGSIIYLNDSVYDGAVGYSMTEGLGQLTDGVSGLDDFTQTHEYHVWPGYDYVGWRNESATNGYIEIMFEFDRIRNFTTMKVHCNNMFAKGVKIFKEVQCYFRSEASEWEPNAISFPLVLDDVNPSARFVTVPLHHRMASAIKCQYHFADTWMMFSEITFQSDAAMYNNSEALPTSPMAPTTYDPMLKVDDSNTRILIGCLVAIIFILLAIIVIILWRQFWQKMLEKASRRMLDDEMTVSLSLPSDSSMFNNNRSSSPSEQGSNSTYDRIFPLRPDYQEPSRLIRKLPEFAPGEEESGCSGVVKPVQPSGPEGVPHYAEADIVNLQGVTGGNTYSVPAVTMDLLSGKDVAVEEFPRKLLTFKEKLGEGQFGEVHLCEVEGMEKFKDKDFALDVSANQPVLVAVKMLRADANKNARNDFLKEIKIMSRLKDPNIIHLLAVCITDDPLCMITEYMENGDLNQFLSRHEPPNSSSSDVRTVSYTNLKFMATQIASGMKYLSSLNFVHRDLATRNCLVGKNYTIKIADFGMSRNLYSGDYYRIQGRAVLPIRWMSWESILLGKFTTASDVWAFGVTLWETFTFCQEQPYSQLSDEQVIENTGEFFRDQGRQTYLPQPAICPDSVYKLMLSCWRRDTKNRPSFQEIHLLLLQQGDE

[10] = target: Serine/threonine-protein kinase Nek6 (Homo sapiens, UniProt Q9HC98); experiment: Inhibition of NEK6 (unknown origin) assessed as residual activity incubated for 5 mins in presence of [gamma-33ATP] by scintillation counting based radiometry assay
Chain of Serine/threonine-protein kinase Nek6 (Q9HC98 whole entry, the tested form may be a part): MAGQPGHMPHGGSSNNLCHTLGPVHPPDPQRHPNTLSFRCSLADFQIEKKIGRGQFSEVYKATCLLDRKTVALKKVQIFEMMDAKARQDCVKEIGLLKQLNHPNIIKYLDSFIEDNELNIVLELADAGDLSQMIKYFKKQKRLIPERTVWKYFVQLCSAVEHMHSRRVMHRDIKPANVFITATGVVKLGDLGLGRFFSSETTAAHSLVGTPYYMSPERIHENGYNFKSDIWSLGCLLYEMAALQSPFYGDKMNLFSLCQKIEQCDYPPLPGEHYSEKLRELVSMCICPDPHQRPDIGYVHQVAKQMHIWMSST

[11] = target: T5, Discoidin domain-containing receptor 2 (Homo sapiens, UniProt Q16832); experiment: Inhibition of DDR2 (unknown origin) assessed as residual activity incubated for 5 mins in presence of [gamma-33ATP] by scintillation counting based radiometry assay
T5 sequence (Q16832 whole entry): T4 sequence (whole entry)

[12] = target: Ephrin type-A receptor 4 (Homo sapiens) (UniProt P54764); experiment: Inhibition of EPHA4 (unknown origin) assessed as residual activity at 10 uM incubated for 5 mins in presence of [gamma-33ATP] by scintillation counting based radiometry assay relative to control

| Activity (Homo sapiens) | pIC50 [1] | pIC50 [2] | Activity [3] | pIC50 [5] | Activity [6] | Activity [7] | pIC50 [8] | Activity [9] | pIC50 [10] | pIC50 [11] | Activity [12] | SMILES | CC50 at 72 h [4] |
| --- | --- | --- | --- | --- | --- | --- | --- | --- | --- | --- | --- | --- | --- |
| 13% | 7.07 | 8.08 | 5% | 7.58 | 17% | 16% | 8.70 | 14% | 5.27 | 6.54 | 2% | Cc1ccc(C(=O)Nc2ccc(CN3Cc4cn[nH]c4C3)c(Cl)c2)cc1C#Cc1cnc2cccnn12 | > 50000 nM |
| 75% | – | – | 52% | – | 37% | 56% | – | 4% | – | – | – | Cc1cn(-c2cc(NC(=O)c3ccc(C)c(Nc4nccc(-c5cccnc5)n4)c3)cc(C(F)(F)F)c2)cn1 [NILOTINIB] | – |
